Assay results taken from ChEMBL document CHEMBL2057077, “Exploration of pipecolate sulfonamides as binders of the FK506-binding proteins 51 and 52” (J Med Chem, 2012).

Experiments:
[1] = target: T1, Peptidyl-prolyl cis-trans isomerase FKBP4 (Homo sapiens, UniProt Q02790); test: Binding affinity to FKBP52 FK1 domain by competitive fluorescence polarization assay
T1 sequence (Q02790 whole entry): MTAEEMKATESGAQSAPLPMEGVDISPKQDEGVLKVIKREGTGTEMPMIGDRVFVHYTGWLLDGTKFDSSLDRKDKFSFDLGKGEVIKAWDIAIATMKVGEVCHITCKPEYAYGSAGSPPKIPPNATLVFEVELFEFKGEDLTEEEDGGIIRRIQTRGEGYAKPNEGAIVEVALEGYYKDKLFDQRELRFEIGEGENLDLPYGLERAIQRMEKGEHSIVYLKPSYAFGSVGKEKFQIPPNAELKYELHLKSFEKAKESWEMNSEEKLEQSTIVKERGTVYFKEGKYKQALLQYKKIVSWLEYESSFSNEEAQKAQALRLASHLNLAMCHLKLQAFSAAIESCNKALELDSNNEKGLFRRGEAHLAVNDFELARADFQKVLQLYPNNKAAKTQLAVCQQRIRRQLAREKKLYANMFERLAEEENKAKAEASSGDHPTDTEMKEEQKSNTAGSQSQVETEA

[2] = target: Peptidyl-prolyl cis-trans isomerase FKBP1A (Homo sapiens, UniProt P62942); test: Binding affinity to FKBP12 by competitive fluorescence polarization assay
[3] = target: T2, Peptidyl-prolyl cis-trans isomerase FKBP5 (Homo sapiens, UniProt Q13451); test: Binding affinity to FKBP51 FK1 domain by competitive fluorescence polarization assay
T2 sequence (Q13451 whole entry): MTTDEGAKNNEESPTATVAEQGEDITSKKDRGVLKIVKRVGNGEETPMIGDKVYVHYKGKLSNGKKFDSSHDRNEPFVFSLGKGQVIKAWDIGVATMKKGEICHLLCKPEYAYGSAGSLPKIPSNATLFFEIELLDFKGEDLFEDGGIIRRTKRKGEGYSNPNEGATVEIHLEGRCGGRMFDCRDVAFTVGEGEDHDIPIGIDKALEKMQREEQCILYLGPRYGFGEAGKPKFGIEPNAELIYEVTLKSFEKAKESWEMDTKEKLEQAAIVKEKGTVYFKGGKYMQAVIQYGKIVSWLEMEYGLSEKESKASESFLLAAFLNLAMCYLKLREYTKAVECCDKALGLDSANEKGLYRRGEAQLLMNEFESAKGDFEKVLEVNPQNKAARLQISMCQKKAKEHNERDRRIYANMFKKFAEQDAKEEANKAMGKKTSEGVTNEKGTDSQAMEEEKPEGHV

Sequence of Peptidyl-prolyl cis-trans isomerase FKBP1A (P62942 whole entry, the tested form may be a part): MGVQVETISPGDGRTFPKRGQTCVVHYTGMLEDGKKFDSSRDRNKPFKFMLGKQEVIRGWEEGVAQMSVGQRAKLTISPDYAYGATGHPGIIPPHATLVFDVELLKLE

| IC50 ([1]; read-out: IC50) [µM] | IC50 ([2]; read-out: IC50) [µM] | IC50 ([3]; read-out: IC50) [µM] | IC50 [1] | IC50 [3] | IC50 [2] | SMILES |
| --- | --- | --- | --- | --- | --- | --- |
| > 100 | 4.6 | – | – | – | – | COc1ccc(CC[C@@H](OC(=O)[C@@H]2CCCCN2S(=O)(=O)c2cc3ccccc3s2)c2cccc(OCC(=O)O)c2)cc1OC |
| > 100 | > 100 | > 100 | – | – | – | COc1ccc(OCCOC(=O)[C@@H]2CCCCN2S(=O)(=O)c2cc(Cl)cc(Cl)c2)cc1OC |
| > 100 | 1.9 | 45.4 | – | – | – | COc1ccc(CC[C@@H](OC(=O)[C@@H]2CCCCN2S(=O)(=O)c2cccc(N)c2)c2cccc(OCC(=O)O)c2)cc1OC |
| – | – | – | Not Active | Not Active | Not Active | COc1ccc(CC[C@@H](OC(=O)[C@@H]2CCCCN2S(=O)(=O)c2cc(OC)c(OC)c(C(=O)O)c2)c2cccc(OCC(=O)O)c2)cc1OC |
| > 100 | 1.8 | – | – | – | – | COc1ccc(CC[C@@H](OC(=O)[C@@H]2CCCCN2S(=O)(=O)c2ccc(-c3ncccn3)cc2)c2cccc(OCC(=O)O)c2)cc1OC |
| > 100 | 0.2 | 66.3 | – | – | – | COc1ccc(OCCOC(=O)[C@@H]2CCCCN2S(=O)(=O)c2ccc3ncsc3c2)cc1OC |
| – | 1.2 | – | – | – | – | COc1ccc(CC[C@@H](OC(=O)[C@@H]2CCCCN2S(=O)(=O)c2ccc3nc(C)sc3c2)c2cccc(OCC(=O)O)c2)cc1OC |
| > 100 | 8.1 | > 100 | – | – | – | COc1ccc(CC[C@@H](OC(=O)[C@@H]2CCCCN2S(=O)(=O)c2cccc(-c3ccnc(C)n3)c2)c2cccc(OCC(=O)O)c2)cc1OC |
| > 50 | > 50 | > 50 | – | – | – | COc1ccc(CC[C@@H](OC(=O)[C@@H]2CCCCN2S(=O)(=O)c2ccc3ncsc3c2)c2cccc(OCCN3CCOCC3)c2)cc1OC |
| – | 0.115 | – | – | – | – | COc1ccc(CC[C@@H](OC(=O)[C@@H]2CCCCN2S(=O)(=O)c2cc(Cl)c(O)c(Cl)c2)c2cccc(OCCN3CCOCC3)c2)cc1OC |
| 69.9 | 3.8 | 28.5 | – | – | – | COc1ccc(CC[C@@H](OC(=O)[C@@H]2CCCCN2S(=O)(=O)c2cccc(C#N)c2)c2cccc(OCC(=O)O)c2)cc1OC |
| – | 1.2 | – | – | – | – | COc1ccc(CC[C@@H](OC(=O)[C@@H]2CCCCN2S(=O)(=O)c2cccc(Cl)c2)c2cccc(OCC(=O)O)c2)cc1OC |
| > 100 | 0.66 | > 100 | – | – | – | COc1ccc(CC[C@@H](OC(=O)[C@@H]2CCCCN2S(=O)(=O)c2ccc3c(c2)CC(=O)N3)c2cccc(OCC(=O)O)c2)cc1OC |
| – | 0.8 | – | – | – | – | COc1ccc(CC[C@@H](OC(=O)[C@@H]2CCCCN2S(=O)(=O)c2cc(Cl)cc(Cl)c2)c2cccc(OCC(=O)O)c2)cc1OC |
| – | 1 | 88.2 | – | – | – | COc1ccc(CC[C@@H](OC(=O)[C@@H]2CCCCN2S(=O)(=O)c2cc(F)cc(F)c2)c2cccc(OCC(=O)O)c2)cc1OC |
| > 100 | 4.5 | > 100 | – | – | – | COC(=O)c1cc(C(=O)OC)cc(S(=O)(=O)N2CCCC[C@H]2C(=O)O[C@H](CCc2ccc(OC)c(OC)c2)c2cccc(OCC(=O)O)c2)c1 |
| 20.3 | 0.67 | 6.2 | – | – | – | COc1ccc(CC[C@@H](OC(=O)[C@@H]2CCCCN2S(=O)(=O)c2cc(Cl)c(O)c(Cl)c2)c2cccc(OCC(=O)O)c2)cc1OC |
| > 100 | 2.4 | > 100 | – | – | – | COc1ccc(CC[C@@H](OC(=O)[C@@H]2CCCCN2S(=O)(=O)c2cc(Br)cc(C(F)(F)F)c2)c2cccc(OCC(=O)O)c2)cc1OC |
| 32.5 | 1.1 | 11.6 | – | – | – | COc1ccc(CC[C@@H](OC(=O)[C@@H]2CCCCN2S(=O)(=O)c2ccc3ncsc3c2)c2cccc(OCC(=O)O)c2)cc1OC |
| > 100 | 5.1 | > 100 | – | – | – | COc1ccc(CC[C@@H](OC(=O)[C@@H]2CCCCN2S(=O)(=O)c2cc(C(F)(F)F)cc(C(F)(F)F)c2)c2cccc(OCC(=O)O)c2)cc1OC |
| > 50 | > 50 | > 50 | – | – | – | COc1ccc(CC[C@@H](OC(=O)[C@@H]2CCCCN2S(=O)(=O)c2cc(Cl)c(OC)c(Cl)c2)c2cccc(OCCN3CCOCC3)c2)cc1OC |
| 15.1 | 0.87 | 9.69 | – | – | – | O=C(OC(CCCc1cccnc1)CCCc1cccnc1)[C@@H]1CCCCN1S(=O)(=O)c1cc(Cl)c(O)c(Cl)c1 |
| > 100 | 9.1 | > 100 | – | – | – | COc1ccc(CC[C@@H](OC(=O)[C@@H]2CCCCN2S(=O)(=O)c2cccc(-c3ccncn3)c2)c2cccc(OCC(=O)O)c2)cc1OC |

Continued, molecule first:

| SMILES | IC50 ([1]; read-out: IC50) [µM] | IC50 ([2]; read-out: IC50) [µM] | IC50 ([3]; read-out: IC50) [µM] | IC50 [1] | IC50 [3] | IC50 [2] |
| --- | --- | --- | --- | --- | --- | --- |
| COc1ccc(CC[C@@H](NC(=O)[C@@H]2CCCCN2S(=O)(=O)c2ccc3[nH]c(=O)sc3c2)c2cccc(OCC(=O)O)c2)cc1OC | > 100 | 1.4 | > 100 | – | – | – |
| COc1ccc(CC[C@@H](OC(=O)[C@@H]2CCCCN2S(=O)(=O)c2cc3c(c([N+](=O)[O-])c2)OCC3)c2cccc(OCC(=O)O)c2)cc1OC | – | 1.5 | – | – | – | – |
| COc1ccc(CC[C@@H](NC(=O)[C@@H]2CCCCN2S(=O)(=O)c2cc(Cl)c(O)c(Cl)c2)c2cccc(OCC(=O)O)c2)cc1OC | > 100 | > 100 | > 100 | – | – | – |
| COc1ccc(CC[C@@H](OC(=O)[C@@H]2CCCCN2S(=O)(=O)c2ccc3[nH]c(=O)oc3c2)c2cccc(OCC(=O)O)c2)cc1OC | > 100 | 0.75 | > 100 | – | – | – |
| COc1ccc(CC[C@@H](OC(=O)[C@@H]2CCCCN2S(=O)(=O)c2ccc3[nH]c(=O)sc3c2)c2cccc(OCC(=O)O)c2)cc1OC | – | 0.021 | – | – | – | – |
| COc1ccc(CC[C@@H](OC(=O)[C@@H]2CCCCN2S(=O)(=O)c2cc(Cl)cc(Cl)c2)c2cccc(OCCN3CCOCC3)c2)cc1OC | > 50 | > 50 | > 50 | – | – | – |
| COc1ccc(CC[C@@H](OC(=O)[C@@H]2CCCCN2S(=O)(=O)c2ccoc2)c2cccc(OCC(=O)O)c2)cc1OC | > 100 | 10.1 | > 100 | – | – | – |
| COc1ccc(CC[C@@H](OC(=O)[C@@H]2CCCCN2S(=O)(=O)c2cccc(Br)c2)c2cccc(OCC(=O)O)c2)cc1OC | 15.7 | 0.32 | 15.8 | – | – | – |
| COc1ccc(CC[C@@H](OC(=O)[C@@H]2CCCCN2S(=O)(=O)c2cc(Cl)c(NC(C)=O)c(Cl)c2)c2cccc(OCC(=O)O)c2)cc1OC | 20.5 | 1.18 | 16.1 | – | – | – |
| COc1ccc(CC[C@@H](OC(=O)[C@@H]2CCCCN2S(=O)(=O)c2ccc(OC)c(OC)c2)c2cccc(OCC(=O)O)c2)cc1OC | > 100 | 7.6 | > 100 | – | – | – |
| COc1ccc(S(=O)(=O)N2CCCC[C@H]2C(=O)O[C@H](CCc2ccc(OC)c(OC)c2)c2cccc(OCC(=O)O)c2)cc1Cl | 40.3 | 0.6 | 29.6 | – | – | – |
| COc1ccc(CC[C@@H](OC(=O)[C@@H]2CCCCN2S(=O)(=O)c2ccc3[nH]c(=O)sc3c2)c2cccc(OCCN3CCOCC3)c2)cc1OC | 3.41 | 0.003 | 2.03 | – | – | – |
| COc1ccc(CC[C@@H](OC(=O)[C@@H]2CCCCN2S(=O)(=O)c2cc(N)c3c(c2)CCO3)c2cccc(OCC(=O)O)c2)cc1OC | > 100 | 2.57 | > 100 | – | – | – |
| COc1ccc(CC[C@@H](OC(=O)[C@@H]2CCCCN2S(=O)(=O)c2cccc([N+](=O)[O-])c2)c2cccc(OCC(=O)O)c2)cc1OC | > 100 | 1.9 | 47.2 | – | – | – |
| COc1ccc(CC[C@@H](OC(=O)[C@@H]2CCCCN2S(=O)(=O)c2ccc(Cl)c(Cl)c2)c2cccc(OCC(=O)O)c2)cc1OC | > 100 | 6.1 | > 100 | – | – | – |
| COc1ccc(CC[C@@H](OC(=O)[C@@H]2CCCCN2S(=O)(=O)c2cc(Cl)c(OC)c(Cl)c2)c2cccc(OCC(=O)O)c2)cc1OC | – | 0.23 | – | – | – | – |
| CCC(C)(C)C(=O)C(=O)N1CCCC[C@H]1C(=O)O[C@H](CCc1ccc(OC)c(OC)c1)c1cccc(OCC(=O)O)c1 | 9.37 | 0.114 | 6.3 | – | – | – |
| COc1ccc(CC[C@@H](OC(=O)[C@@H]2CCCCN2S(=O)(=O)c2cc(Cl)c(NC(C)=O)c(Cl)c2)c2cccc(OCCN3CCOCC3)c2)cc1OC | – | 0.45 | – | – | – | – |
| COc1ccc(CC[C@@H](OC(=O)[C@@H]2CCCCN2S(=O)(=O)c2cccc(F)c2)c2cccc(OCC(=O)O)c2)cc1OC | 84.5 | 1.09 | 54 | – | – | – |
